Read-outs that look alike come from different tables or passages of the source. Where a SMILES comes first, the peptide text is derived from it.
Tests used:
[1] = biological target: T1, Recombinant human somatic ACE (sACE-1) (Homo sapiens, UniProt P12821); experiment: Determination of IC50 values, sACE-1 fluorogenic substrate cleavage; type: biochemical
T1 construct: sACE-1: Leu30-Leu1261, with C-terminal His tag; His tag (C); purchased R&D Systems; host or cells: NS0-derived murine myeloma cell line

[2] = biological target: T1, Recombinant human somatic ACE (sACE-1); experiment: Time-dependent inactivation of sACE-1; type: biochemical; details: pH 7.4, 37° C.
Procedure: Time-Dependent Inactivation of sACE-1. sACE-1 and each M-chelate-lisinopril complex (prepared in the absence of Zn^2+) were preincubated for 20 min at 37° C. in a buffer containing 50 mM HEPES, 300 mM NaCl, 10 μM ZnCl2, 0.05% Brij35, pH 7.4, and after 20 min, coreactants ascorbate and/or H2O2 (or no coreactants) were added to initiate each reaction. Reaction concentrations were 1 nM sACE-1, a concentration of M-chelate-lisinopril that gave approximately 80% activity (calculated by use of equation (1), where A=80%; concentrations listed in the table in paragraph [00132]), and 1 mM ascorbate and/or H2O2 (or no coreactants). Each time-dependent ACE-inactivation reaction proceeded at 37° C. for a period of 2 h, and at each specific intervening time point, a 68.6 μL, aliquot of the reaction mixture containing sACE-1 was mixed with 1.4 μL of 0.5 mM fluorogenic substrate in a fluorescence cuvette. Substrate cleavage by sACE-1 was immediately monitored by real-time fluorimetry at 37° C., with excitation at 320 nm and emission at 405 nm. Initial rates were determined for each time point for the time-dependent inactivation of sACE-1, and these initial rates were expressed as a percentage (% maximal activity) of the average of several initial rates for uninhibited substrate cleavage by sACE-1, determined in the absence of both M-chelate-lisinopril complexes and coreactants. Plots of % maximal activity vs. time were fit to a first-order exponential decay model, and initial rates of inactivation of sACE-1 by M-chelate-lisinopril complexes were determined. Second-order rate constants for inactivation of sACE-1 were obtained using equation (2), where k2 is the second-order rate constant (M^−1 min^−1), R is the initial rate of enzyme inactivation (M/min) after subtraction of the corresponding background rate in the absence of M-chelate-lisinopril complex, but with the same coreactants, [I] is the concentration of M-chelate-lisinopril complex used (M), and [E] is the concentration of sACE-1 used (1×10^−9 M). Control experiments with M-chelate complexes lacking attached lisinopril were performed in the same manner and conditions used for the respective M-chelate-lisinopril complexes.

pUC19 plasmid DNA = experiment: DNA nicking and linearization nuclease assay; type: biochemical; details: 10 μM base pairs pUC19; ascorbate/peroxide; — = Below detection limit
[3] = tested on: HCV RNA replicon in ET (luc-ubi-neo/ET) Huh7 cells; details: read-out: antiviral IC50; 72 h, replicon-derived Luc activity
in vitro = details: human
HCV protease [4] = biological target: T2, HCV protease (Hepatitis C virus genotype 1a, UniProt P27958); experiment: biochemical; type: binding; details: apparent binding affinity
Text: (§1) This stems from the relationship between affinity and the on/off rate constants for binding (KA=kon/koff), where higher affinity binding is promoted by larger kon and/or smaller koff values. By contrast, efficient catalytic turnover requires koff values that are preferably no smaller than the rate constant for the inactivation chemistry (kcat), to ensure the availability of metallodrug catalyst for new target molecules, and will be best promoted by relatively high values for both kon and koff, which will result in weaker KA values.
(§2) Apparent binding affinities and rates of inactivation for HCV protease by several metallopeptide derivatives incorporating a Cu-GGH metal binding domain and C-terminal HCV protease targeting peptides were prepared and their affinity and reactivity were evaluated under in the presence of various redox reagents. Affinities lay within the range of 10^4M^−1 and 5×10^8 M^−1.

HCV protease [5] = biological target: T2, HCV protease; type: biochemical
Text: as §1, §2

T2 sequence (P27958 1027-1208, other chains not shown): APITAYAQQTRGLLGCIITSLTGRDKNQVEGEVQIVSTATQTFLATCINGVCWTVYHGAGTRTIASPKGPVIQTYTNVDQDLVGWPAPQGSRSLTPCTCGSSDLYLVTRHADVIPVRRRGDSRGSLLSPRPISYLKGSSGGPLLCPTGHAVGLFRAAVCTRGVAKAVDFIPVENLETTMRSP
T1 sequence (P12821 30-1261): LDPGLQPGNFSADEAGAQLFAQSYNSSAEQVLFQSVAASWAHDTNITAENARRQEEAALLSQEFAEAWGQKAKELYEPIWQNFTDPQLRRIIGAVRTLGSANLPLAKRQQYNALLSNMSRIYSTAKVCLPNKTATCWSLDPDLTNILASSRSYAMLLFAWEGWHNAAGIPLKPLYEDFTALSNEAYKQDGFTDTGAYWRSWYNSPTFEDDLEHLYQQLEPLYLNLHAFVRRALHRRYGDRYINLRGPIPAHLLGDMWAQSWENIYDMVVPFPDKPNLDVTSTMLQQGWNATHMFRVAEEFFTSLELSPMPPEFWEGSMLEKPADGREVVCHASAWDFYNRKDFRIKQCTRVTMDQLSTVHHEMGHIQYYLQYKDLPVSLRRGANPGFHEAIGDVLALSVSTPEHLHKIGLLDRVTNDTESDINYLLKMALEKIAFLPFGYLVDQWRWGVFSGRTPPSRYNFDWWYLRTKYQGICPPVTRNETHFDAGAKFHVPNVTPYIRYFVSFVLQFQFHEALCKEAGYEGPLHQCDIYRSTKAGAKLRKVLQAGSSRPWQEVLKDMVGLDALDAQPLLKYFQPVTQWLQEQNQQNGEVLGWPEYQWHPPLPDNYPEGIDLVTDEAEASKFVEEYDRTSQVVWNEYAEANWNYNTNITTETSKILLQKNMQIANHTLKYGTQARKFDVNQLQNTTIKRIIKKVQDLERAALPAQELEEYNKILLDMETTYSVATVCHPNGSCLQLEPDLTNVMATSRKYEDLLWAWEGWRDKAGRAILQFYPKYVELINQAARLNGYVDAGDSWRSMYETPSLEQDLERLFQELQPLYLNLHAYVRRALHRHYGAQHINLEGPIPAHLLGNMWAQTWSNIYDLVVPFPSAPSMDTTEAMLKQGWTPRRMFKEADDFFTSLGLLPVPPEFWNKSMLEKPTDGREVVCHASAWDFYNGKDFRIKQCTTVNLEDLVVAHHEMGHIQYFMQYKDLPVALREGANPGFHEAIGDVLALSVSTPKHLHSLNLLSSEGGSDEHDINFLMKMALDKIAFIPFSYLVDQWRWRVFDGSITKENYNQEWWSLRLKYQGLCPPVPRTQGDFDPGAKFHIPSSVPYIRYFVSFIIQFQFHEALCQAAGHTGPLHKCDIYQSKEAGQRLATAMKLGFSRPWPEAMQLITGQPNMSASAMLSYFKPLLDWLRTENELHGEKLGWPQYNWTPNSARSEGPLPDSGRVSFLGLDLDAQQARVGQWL

Row | Molecule | klin for DNA linearization, without attached Rev (M-chelate) (pUC19 plasmid DNA) | knick for DNA nicking, without attached Rev (M-chelate) (pUC19 plasmid DNA) | IC50 [3] | CC50 at 72 h (in vitro) | other results
1 | NCC(=O)NCC(=O)N[C@@H](Cc1c[nH]cn1)C(=O)O [Cu-GGH] (H-Gly-Gly-His-OH) | 0.0012 ± 0.0002 min⁻¹ | 0.06 ± 0.01 min⁻¹ | – | – | IC50 [1]: 17 µM; kinact/KI ([2]; pH 7.4, read-out: Second order rate constant for inactivation of sACE-1, M-chelate without lisinopril, Ascorbate + H2O2): 167 M⁻¹ s⁻¹; kinact/KI ([2]; pH 7.4, read-out: Second order rate constant for inactivation of sACE-1, M-chelate without lisinopril, Ascorbate): < 16.7 M⁻¹ s⁻¹; kinact/KI ([2]; pH 7.4, read-out: Second order rate constant for inactivation of sACE-1, M-chelate without lisinopril, H2O2): < 33.3 M⁻¹ s⁻¹
2 | O=C([O-])CN(CC(=O)[O-])CC(=O)O.[Cu+2] [Cu-NTA] | 0.0032 ± 0.0004 min⁻¹ | 0.148 ± 0.007 min⁻¹ | – | – | IC50 ([1]; 1 nM sACE-1, 20 min preincubation, 37° C., pH 7.4, read-out: IC50's): 36 µM
3 | CC[C@H](C)[C@H](NC(=O)[C@H](CCCCN)NC(=O)[C@H](C)NC(=O)[C@H](CCC(=O)O)NC(=O)[C@H](CC(C)C)NC(=O)[C@H](C)NC(=O)[C@H](C)N)C(=O)N[C@@H](CS)C(=O)N[C@@H](Cc1c[nH]cn1)C(=O)N[C@@H](CCC(N)=O)C(=O)N[C@H](C(=O)N[C@@H](CCC(=O)O)C(=O)N[C@@H](Cc1ccc(O)cc1)C(=O)N[C@@H](Cc1ccc(O)cc1)C(=O)N[C@@H](Cc1ccccc1)C(=O)NCC(=O)N[C@@H](CC(=O)O)C(=O)N[C@@H](Cc1ccccc1)C(N)=O)[C@@H](C)CC [reference compound] (H-AALEAKICHQIEYYFGDF-NH2) | – | – | > 100 µM | > 100 µM | –
4 | CC[C@H](C)[C@H](NC(=O)[C@H](CC(C)C)NC(=O)[C@H](CC(C)C)NC(=O)[C@H](CC(=O)O)NC(=O)[C@@H](NC(=O)[C@H](CCC(=O)O)NC(=O)[C@H](CCCCN)NC(=O)[C@H](Cc1ccc(O)cc1)NC(=O)[C@@H](N)CCCCN)[C@@H](C)O)C(=O)N[C@@H](CC(C)C)C(=O)N[C@@H](Cc1ccccc1)C(=O)N[C@@H](CCCCN)C(=O)N[C@@H](CC(=O)O)C(=O)N[C@@H](CC(=O)O)C(=O)N[C@@H](Cc1ccc(O)cc1)C(=O)N[C@@H](Cc1ccccc1)C(=O)N[C@@H](C)C(=O)N[C@@H](CCCCN)C(=O)N[C@@H](CCCCN)C(=O)N[C@@H](CC(N)=O)C(=O)N[C@@H](CCC(=O)O)C(=O)N[C@@H](CCC(=O)O)C(=O)N[C@@H](CCCNC(=N)N)C(=O)N[C@@H](CCCCN)C(N)=O [reference compound] (H-KYKETDLLILFKDDYFAKKNEERK-NH2) | – | – | > 100 µM | > 100 µM | –
5 | Cu-GGHGDEMEEC | – | – | – | – | KA (HCV protease [4]): 48000 M⁻¹; rate constant for inactivation kinact (catalytic efficiency) (HCV protease [5]; in the presence of ascorbate/O2): ~1.6 h⁻¹; kinact (HCV protease [5]; in the presence of various redox reagents): 0.04 min⁻¹

— patent US20140377289A1, “Metallodrugs Having Improved Pharmacological Properties, and Methods of Manufacture and Use Thereof” (MetalloPharm, LLC, priority 2011, published 2014)
